Measurements: patent US11623919B2, “Heterocyclic P2X7 antagonists” (AXXAM S.P.A., priority 2017, dated 2023)

What was measured:
Type in all cases: cell-based
[1] = target: T1, P2X7 receptor (Homo sapiens, UniProt Q99572); assay: Automated patch-clamp (QPatch16X) P2X7 channel assay; parameters: expressed in transfected cells; host or cells: HEK-293; settings: HEK-293 cells expressing P2X7 channels; whole-cell, held at -80 mV; 100 microM BzATP; compound 1, 10, 100 and 1000 nM; read-out: Q-Patch (IC50)
T1 sequence (Q99572 1-595): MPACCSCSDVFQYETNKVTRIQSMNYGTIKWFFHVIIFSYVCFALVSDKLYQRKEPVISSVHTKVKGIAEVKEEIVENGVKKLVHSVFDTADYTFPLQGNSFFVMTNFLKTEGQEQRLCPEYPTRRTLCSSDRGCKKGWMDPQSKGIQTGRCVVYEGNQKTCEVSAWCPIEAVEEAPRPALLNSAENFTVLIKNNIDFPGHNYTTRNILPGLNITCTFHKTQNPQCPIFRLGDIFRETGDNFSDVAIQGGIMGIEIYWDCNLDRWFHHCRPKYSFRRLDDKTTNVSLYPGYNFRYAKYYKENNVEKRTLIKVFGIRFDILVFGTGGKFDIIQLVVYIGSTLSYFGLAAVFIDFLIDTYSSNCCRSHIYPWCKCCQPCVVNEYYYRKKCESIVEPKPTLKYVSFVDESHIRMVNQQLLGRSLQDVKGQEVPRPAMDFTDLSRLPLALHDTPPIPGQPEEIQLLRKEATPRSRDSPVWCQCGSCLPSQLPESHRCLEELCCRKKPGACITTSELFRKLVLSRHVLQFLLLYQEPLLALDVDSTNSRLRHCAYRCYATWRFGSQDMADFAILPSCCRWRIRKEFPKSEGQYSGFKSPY
Method: In order to directly monitor the block of P2X7 channel, an electrophysiological assay was developed and implemented on the QPatch16X automated electrophysiology instrument.
HEK-293 cells expressing the P2X7 channels were cultured in modified EMEM.
72 hours before experiment, 5 million cells were seeded onto T225 flasks. Just before the experiment cells were washed twice, detached from the flask with trypsin-EDTA, re-suspended in the suspension solution and placed on the QPatch 16x.
The compounds (20 mM in a 100% DMSO) stored at −20° C. were prepared the day of the experiment (a first dilution 1:20 in 100% DMSO to prepare a 1 mM stock solution, then a 1 microM solution in external solution+a serial dilution 1:10).
The standard whole-cell voltage clamp experiments were performed at room temperature. From these experiments the multihole technology was used and the data were sampled at 2 KHz.
The intracellular solution contained (mM) 135 CsF, 10 NaCl, 1 EGTA, 10 HEPES, (pH 7.2 with CsOH) whereas the extracellular contained (mM) 145 NaCl, 4 KCl, 0.5 MgCl2, 1 CaCl2, 10 HEPES, 10 Glc (pH 7.4 with NaOH).
After establishment of the seal and the passage in the whole cell configuration, the cells were held at −80 mV. The P2XR7 current was evoked by applying 100 microM of BzATP alone (4 times) and then in the presence increasing concentrations of the compound under investigation (1, 10, 100 and 1000 nM).
The pre-incubation periods 5 to 8 contain increasing concentrations of the compound of interest (1, 10, 100 and 1000 nM), as illustrated in FIGURE (application protocol).
The maximal inward current evoked by BzATP in absence or presence of increasing concentrations of the compounds under investigation was measured and normalized. The potential […] effect was measured as % of control and as IC50 determined fitting the dose-response curves data with the following equation: Y=100/(1+10^((Log IC50−X)*HillSlope))

[2] = target: T2, P2X7 receptor (Mus musculus, UniProt Q9Z1M0); assay: Screen Quest Fluo-8 No Wash Calcium Assay (Bz-ATP evoked Ca2+ influx, FLIPR); settings: mP2X7; HEK-293 cells stably transfected with P2X7 receptor, Bz-ATP at EC80, Fluo-8 NW; potency ranges A-D
T2 construct: mP2X7 (IC50; nM); other: mP2X7; HEK-293 cells stably transfected with P2X7 receptor, Bz-ATP at EC80, Fluo-8 NW; potency
T2 sequence (Q9Z1M0 1-595): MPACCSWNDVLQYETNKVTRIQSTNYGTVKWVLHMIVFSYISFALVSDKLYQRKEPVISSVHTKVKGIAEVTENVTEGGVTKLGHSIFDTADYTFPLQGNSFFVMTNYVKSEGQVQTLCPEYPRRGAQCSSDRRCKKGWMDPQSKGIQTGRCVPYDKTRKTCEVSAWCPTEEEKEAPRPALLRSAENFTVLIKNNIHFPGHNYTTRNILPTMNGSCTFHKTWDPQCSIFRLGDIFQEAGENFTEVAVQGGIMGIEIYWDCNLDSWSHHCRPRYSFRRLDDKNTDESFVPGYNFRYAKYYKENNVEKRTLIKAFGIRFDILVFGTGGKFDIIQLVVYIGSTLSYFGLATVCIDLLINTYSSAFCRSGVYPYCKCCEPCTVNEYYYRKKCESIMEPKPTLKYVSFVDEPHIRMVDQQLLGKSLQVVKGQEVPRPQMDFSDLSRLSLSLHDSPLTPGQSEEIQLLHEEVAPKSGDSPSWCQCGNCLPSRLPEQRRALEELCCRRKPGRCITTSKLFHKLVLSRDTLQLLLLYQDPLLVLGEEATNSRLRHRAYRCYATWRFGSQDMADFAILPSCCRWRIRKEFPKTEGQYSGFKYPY
Summary of the method: (§1)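 HEK-293 cells stably expressing P2X7 were loaded with Fluo-8 NW for 1 h at RT, then given compound, and 5 min later Bz-ATP at EC80. Fluorescence was read by FLIPR in low divalent cation buffer (0.3 mM Ca2+, 0 mM Mg2+). IC50 came from percent inhibition relative to reference antagonist A438079.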

[3] = target: T3, P2X7 receptor (Rattus norvegicus, UniProt Q64663); assay: as above; settings: rP2X7; HEK-293 cells stably transfected with P2X7 receptor, Bz-ATP at EC80, Fluo-8 NW; potency ranges A-D
T3 construct: rP2X7 (IC50; nM); other: rP2X7; HEK-293 cells stably transfected with P2X7 receptor, Bz-ATP at EC80, Fluo-8 NW; potency
T3 sequence (Q64663 1-595): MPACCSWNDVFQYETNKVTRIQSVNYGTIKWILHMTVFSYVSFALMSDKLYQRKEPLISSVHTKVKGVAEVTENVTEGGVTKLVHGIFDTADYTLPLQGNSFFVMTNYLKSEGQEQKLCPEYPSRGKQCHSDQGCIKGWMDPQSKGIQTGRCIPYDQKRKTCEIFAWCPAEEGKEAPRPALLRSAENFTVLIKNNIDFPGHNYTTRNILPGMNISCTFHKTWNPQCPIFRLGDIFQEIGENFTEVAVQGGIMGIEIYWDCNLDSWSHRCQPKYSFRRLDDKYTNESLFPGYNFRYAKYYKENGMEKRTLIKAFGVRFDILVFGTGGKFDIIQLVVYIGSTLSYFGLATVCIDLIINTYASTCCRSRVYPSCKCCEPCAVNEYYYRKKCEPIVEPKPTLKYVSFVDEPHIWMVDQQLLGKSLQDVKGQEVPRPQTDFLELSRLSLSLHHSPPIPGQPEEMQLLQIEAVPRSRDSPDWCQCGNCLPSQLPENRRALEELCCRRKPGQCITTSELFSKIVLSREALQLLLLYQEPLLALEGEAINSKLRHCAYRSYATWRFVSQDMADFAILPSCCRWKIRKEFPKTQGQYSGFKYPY
Summary of the method: as §1

[4] = target: T1, P2X7 receptor; assay: as above; parameters: hP2X7 (IC50; nM); other: hP2X7; HEK-293 cells stably transfected with P2X7 receptor, Bz-ATP at EC80, Fluo-8 NW; potency; settings: hP2X7; HEK-293 cells stably transfected with P2X7 receptor, Bz-ATP at EC80, Fluo-8 NW; potency ranges A-D
Summary of the method: as §1

SMILES	IC50 [1] [µM]	IC50 [2] [nM]	IC50 [3] [nM]	IC50 [4] [nM]
CC(c1ccccc1)n1c(Cc2c(F)cccc2Cl)noc1=O (centres unmarked) [Example 49, 3-[(2-chloro-6-fluorophenyl)methyl]-4-(1-phenylethyl)-4,5-dihydro-1,2,4-oxadiazol-5-one]	0.391	1000 to 10000	200 to 1000	1000 to 10000
O=c1onc(Cc2c(F)cccc2Cl)n1Cc1cccc(Cl)c1Cl [Example 59, 3-[(2-chloro-6-fluorophenyl)methyl]-4-[(2,3-dichlorophenyl)methyl]-4,5-dihydro-1,2,4-oxadiazol-5-one]	0.355	200 to 1000	200 to 1000	200 to 1000
